The values that follow come from patent publication US6506766B1 (Abbott Laboratories, priority 1998, dated 2003).

The target of assay [1] is T1, human progesterone receptor-A [PRA] isoform (Homo sapiens, UniProt P06401).
T1 construct: host or cells: insect SF21 cells (baculovirus)
T1 sequence (P06401 1-769 isoform P06401-2): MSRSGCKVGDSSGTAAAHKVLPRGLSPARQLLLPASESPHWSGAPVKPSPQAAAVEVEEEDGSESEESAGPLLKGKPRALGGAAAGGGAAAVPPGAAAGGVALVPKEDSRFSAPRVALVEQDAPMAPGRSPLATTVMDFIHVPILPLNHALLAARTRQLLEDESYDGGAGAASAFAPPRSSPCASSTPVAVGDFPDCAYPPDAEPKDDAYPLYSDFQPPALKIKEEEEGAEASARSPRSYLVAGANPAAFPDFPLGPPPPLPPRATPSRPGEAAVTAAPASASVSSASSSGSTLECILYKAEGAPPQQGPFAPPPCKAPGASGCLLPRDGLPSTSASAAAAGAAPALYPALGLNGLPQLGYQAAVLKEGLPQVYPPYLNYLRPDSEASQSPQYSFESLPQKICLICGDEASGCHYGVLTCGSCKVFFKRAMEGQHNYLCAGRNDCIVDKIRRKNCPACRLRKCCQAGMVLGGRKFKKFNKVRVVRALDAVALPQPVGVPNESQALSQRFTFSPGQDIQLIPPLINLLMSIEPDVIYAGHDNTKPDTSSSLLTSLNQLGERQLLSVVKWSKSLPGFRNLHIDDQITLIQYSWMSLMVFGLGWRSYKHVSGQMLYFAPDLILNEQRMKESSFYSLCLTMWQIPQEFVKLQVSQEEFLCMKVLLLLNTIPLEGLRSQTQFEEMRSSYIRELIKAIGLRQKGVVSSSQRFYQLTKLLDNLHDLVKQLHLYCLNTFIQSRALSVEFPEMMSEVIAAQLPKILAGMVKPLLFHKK
As to the kind of experiment: Radioligand binding with human progesterone receptor cytosol ([3H]-progesterone competition). To be noted: PRA cytosol expressed in insect SF21 cells, [3H]Prog ~0.8 nM, 4° C. overnight; Ki by Cheng-Prusoff, KL ~4.5 nM; read-out: Ki (nM) PR.

Assay [2] concerns the target T2, human glucocorticoid receptor-α [GRX] isoform (Homo sapiens, UniProt P04150).
T2 construct: host or cells: insect SF21 cells (baculovirus)
T2 sequence (P04150 1-777): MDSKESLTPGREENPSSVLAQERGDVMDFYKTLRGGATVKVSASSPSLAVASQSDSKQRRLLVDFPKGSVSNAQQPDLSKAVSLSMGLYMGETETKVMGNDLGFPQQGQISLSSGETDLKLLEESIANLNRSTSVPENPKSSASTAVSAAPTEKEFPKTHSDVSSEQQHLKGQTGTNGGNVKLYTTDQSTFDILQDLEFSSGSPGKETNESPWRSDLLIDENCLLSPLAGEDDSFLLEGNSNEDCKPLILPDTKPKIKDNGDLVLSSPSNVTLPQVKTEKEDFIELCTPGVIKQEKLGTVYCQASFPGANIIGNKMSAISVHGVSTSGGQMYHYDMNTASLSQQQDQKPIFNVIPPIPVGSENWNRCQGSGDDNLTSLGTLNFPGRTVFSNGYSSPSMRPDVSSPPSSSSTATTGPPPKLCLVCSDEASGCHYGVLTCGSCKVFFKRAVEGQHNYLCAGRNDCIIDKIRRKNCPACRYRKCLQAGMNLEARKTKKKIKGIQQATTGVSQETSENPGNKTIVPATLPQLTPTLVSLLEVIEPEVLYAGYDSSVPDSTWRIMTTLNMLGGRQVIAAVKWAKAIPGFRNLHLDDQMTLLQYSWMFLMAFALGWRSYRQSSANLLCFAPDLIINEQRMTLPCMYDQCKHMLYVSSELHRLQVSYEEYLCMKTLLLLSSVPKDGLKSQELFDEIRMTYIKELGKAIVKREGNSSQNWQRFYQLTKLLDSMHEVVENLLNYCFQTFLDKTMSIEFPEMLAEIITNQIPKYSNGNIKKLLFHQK
As to the kind of experiment: Radioligand binding with human glucocorticoid receptor cytosol ([3H]-dexamethasone competition). The following applies: GRX cytosol expressed in insect SF21 cells, [3H]-Dex ~0.9 nM, 4° C. overnight; Ki by Cheng-Prusoff, KL ~[…]; read-out: Ki (nM) GR.

`CC1=CC(C)(C)Nc2ccc3c(c21)C(c1ccccc1)Oc1cccc(C=O)c1-3` (stereo not drawn) [Example 337, 2,5-Dihydro-10-formyl-5-phenyl-2,2,4-trimethyl-1H-[1]benzopyrano[3,4-f]quinoline]: the values for the Ki in assay [1] and in assay [2] were 702 nM and 3.3 nM, respectively.
On the same counts, the results for `COCc1cccc2c1-c1ccc3c(c1C(c1ccccc1)O2)C(C)=CC(C)(C)N3` (stereo not drawn) [Example 338, 2,5-Dihydro-10-(methoxymethyl)-5-phenyl-2,2,4-trimethyl-1H-[1]benzopyrano[3,4-f]quinoline] are no less than 10000 nM and 61 nM.
The corresponding values for `C=Cc1cccc2c1-c1ccc3c(c1C(C1C=CCCC1)O2)C(C)=CC(C)(C)N3` (stereo not drawn) [Example 340] are 254 nM and 1.8 nM.
The corresponding values for `C=Cc1cccc2c1-c1ccc3c(c1C(C1C=C(C)CCC1)O2)C(C)=CC(C)(C)N3` (stereo not drawn) [Example 341] are no less than 10000 nM and 2.5 nM.
As to `C=CCC1Oc2cccc(SC)c2-c2ccc3c(c21)C(C)=CC(C)(C)N3` (stereo not drawn) [Example 342, 2,5-Dihydro-5-(3-propenyl)-10-methylthio-2,2,4-trimethyl-1H-[1]benzopyrano[3,4-f]quinoline], the Ki in assay [1] was no less than 10000 nM; in assay [2], 2590 nM.
The corresponding values for `C=CCC1Oc2cccc(SC)c2-c2ccc3c(c21)C(C)=CC(C)(C)N3` (stereo not drawn) [Example 343, 2,5-Dihydro-5-(3-propenyl)-10-methylthio-2,2,4-trimethyl-1H-[1]benzopyrano[3,4-f]quinoline] are 4700 nM and 5.2 nM.
On the same counts, the results for `CC1=CC(C)(C)Nc2ccc3c(c21)C(c1ccccc1)Oc1cccc(OC(F)F)c1-3` (stereo not drawn) [Example 345, 10-(Difluoromethoxy)-2,5-dihydro-5-phenyl-2,2,4-trimethyl-1H-[1]benzopyrano[3,4-f]quinoline] are 3000 nM and 8.7 nM.
The corresponding values for `CC1=CC(C)(C)Nc2ccc3c(c21)C(c1ccccc1)Oc1cccc(OC(F)(F)Br)c1-3` (stereo not drawn) [Example 346, 10-(Bromodifluoromethoxy)-2,5-dihydro-5-phenyl-2,2,4-trimethyl-1H-[1]benzopyrano[3,4-f]quinoline] are 5110 nM and 44 nM.
Consider `C=C1CC(C)(C)Nc2ccc3c(c21)C(c1ccccc1)Oc1cccc(OC(F)(F)Br)c1-3` (stereo not drawn) [Example 347, 10-(Bromodifluoromethoxy)-5-phenyl-2,2-dimethyl-4-methylene-2,3,4,5-tetrahydro-1H-chromeno[3,4-f]quinoline], for which the Ki in assay [1] is no less than 10000 nM; in assay [2], 128 nM.
On the same counts, the results for `COc1c(O)ccc2c1-c1ccc3c(c1C(Cc1ccccc1F)O2)C(C)=CC(C)(C)N3` (stereo not drawn) [Example 348, 2,5-Dihydro-9-hydroxy-10-methoxy-2,2,4-trimethyl-5-((2-fluorophenyl)methyl)-1H-[1]benzopyranol[3,4-f]quinoline] are 171 nM and 0.89 nM.
With `COc1cccc2c1-c1ccc3c(c1C(=Cc1cc(C)no1)O2)C(C)=CC(C)(C)N3` [Example 350, 10-Methoxy-5-(3-methylisoxazol-5-yl)methyidene-2,5-dihydro-5-phenyl-2,2,4-trimethyl-1H-[1]benzopyrano[3,4-f]quinoline], the Ki in assay [1] is no less than 10000 nM; in assay [2] it was 6.22 nM.
`COc1cccc2c1-c1ccc3c(c1C(=Cc1cccc(Cl)n1)O2)C(C)=CC(C)(C)N3` [Example 352]: the Ki in assay [1] is no less than 10000 nM; in assay [2], 58 nM.
On to `CCC(C)=C1Oc2cccc(OC)c2-c2ccc3c(c21)C(C)=CC(C)(C)N3` [Example 355, 10-Methoxy-5-(1-methylpropylidene)-2,5-dihydro-5-phenyl-2,2,4-trimethyl-1H-[1]benzopyrano[3,4-f]quinoline], for which the Ki was 4280 nM in assay [1] and 27 nM in assay [2].
In the case of `COc1cccc2c1-c1ccc3c(c1C(c1ccccc1)O2)C(C)=[N+]([O-])C(C)(C)N3` (stereo not drawn) [Example 357, 2,5-Dihydro-10-methoxy-2,2,4-trimethyl-3-oxide-5-phenyl-1H-[1]benzopyrano[3,4-f]quinazoline], the Ki in assay [1] was no less than 10000 nM; in assay [2] it was 59.8 nM.
The corresponding values for `COc1cccc2c1-c1ccc3c(c1C(c1ccccc1)O2)C(C)=NC(C)(C)N3` (stereo not drawn) [Example 358, 2,5-Dihydro-10-methoxy-2,2,4-trimethyl-5-phenyl-1H-[1]benzopyrano[3,4-f]quinazoline] are 8960 nM and 4.2 nM.
The corresponding values for `C=CCC1Oc2cccc(OC)c2-c2ccc3c(c21)C(C)=CC1(CCOCC1)N3` (stereo not drawn) [Example 359, 2,5-Dihydro-10-methoxy-2,2-[spiro(tetrahydro-4-pyranyl)]-4-methyl-5-ally-1H-[1]benzopyrano[3,4-f]quinoline] are 2220 nM and 11.3 nM.
The corresponding values for `C=CCC1Oc2cccc(OC)c2-c2ccc3c(c21)C(C)=CC(CC)(CC)N3` (stereo not drawn) [Example 361, 2,5-Dihydro-10-methoxy-2,2-diethyl-4-methyl-5-allyl-1H-[1]benzopyrano[3,4-f]quinoline] are 9140 nM and 95.7 nM.
With `C=CCC1Oc2cccc(OC)c2-c2ccc3c(c21)C(C)=C(C)C(C)(C)N3` (stereo not drawn) [Example 362, 2,5-Dihydro-10-methoxy-2,2,3,4-tetramethyl-5-allyl-1H-[1]benzopyrano[3,4-f]quinoline], the Ki turned out to be 3370 nM in assay [1] and 6.5 nM in assay [2].
The corresponding values for `C=CCC1Oc2cccc(OC)c2-c2ccc3c(c21)C(CC)=CC(C)(C)N3` (stereo not drawn) [Example 363, 2,5-Dihydro-10-methoxy-2,2-dimethyl-4-ethyl-5-allyl-1H-[1]benzopyrano[3,4-f]quinoline] are 3940 nM and 5 nM.
The corresponding values for `C=CCC1Oc2cccc(OC)c2-c2ccc3c(c21)C=C(C)C(C)(C)N3` (stereo not drawn) [Example 364, 2,5-Dihydro-10-methoxy-2,2,3-trimethyl-5-allyl-1H-[1]benzopyrano[3,4-f]quinoline] are no less than 10000 nM and 424 nM.
Turning to `COc1c(O)ccc2c1-c1ccc3c(c1/C(=C/c1cc(F)ccc1F)O2)C(C)=CC(C)(C)N3` [Example 366, Z-5-(2,5-Difluorobenzylidenyl)-9-hydroxy-10-methoxy-2,2,4-trimethyl-1H-2,5-dihydro-[1]benzopyrano[3,4-f]quinoline], the figures for the Ki in assay [1] and in assay [2] were 83.9 nM and 2.1 nM, respectively.
The corresponding values for `CC1=CC(C)(C)Nc2ccc3c(c21)/C(=C/c1ccccn1)Oc1ccc(O)c(Cl)c1-3` [Example 368, Z-10-Chloro-9-hydroxy-5-(2-picolinylidenyl)-2,2,4-trimethyl-2,5-dihydro-1H-[1]benzopyrano[3,4-f]quinoline] are 61 nM and 0.21 nM.
On the same counts, the results for `COc1c(O)ccc2c1-c1ccc3c(c1/C(=C/c1ccccn1)O2)C(C)=CC(C)(C)N3` [Example 369, Z-9-Hydroxy-10-methoxy-5-(2-picolinylidenyl)-2,2,4-trimethyl-2,5-dihydro-1H-[1]benzopyrano[3,4-f]quinoline] are 2530 nM and 0.41 nM.
The corresponding values for `COc1c(O)ccc2c1-c1ccc3c(c1/C(=C/c1ccc(F)cc1)O2)C(C)=CC(C)(C)N3` [Example 372, (Z)9-Hydroxy-10-methoxy-5-((4-fluorophenyl)methylene)-2,2,4-trimethyl-1H-2,5-dihydro-[1]benzopyrano[3,4-f]quinoline] are 164 nM and 1.8 nM.

By Ki is commonly meant a measure of affinity in units of concentration, obtained from inhibition or displacement.
